Common to all, as to type: cell-based
One test relates to RKO. The experiment in a line: Methylene Blue Cell Growth Inhibition Assay, RKO. To be noted: Homo sapiens, 72 h, read-out: MEB RKO IC50. The procedure: Normal human foreskin fibroblasts (HFF), human colon (HCT116, RKO), lung (H460, A549) and breast (MCF7) tumor cell lines were cultured in high glucose DMEM (Life Technologies) containing 10% fetal bovine serum (FBS) at 37° C. in a humidified 5% CO2, 95% air incubator. Cells were harvested using trypsin/EDTA, counted using a haemocytometer, and plated in 100 μL of culture media per well, at the following densities, in a 96-well tissue culture plate (Falcon 3075): HFF 5,000 cells/well, HCT116 3,000 cells/well, RKO 2,500 cells/well, H460 2,500 cells/well, A549 5,000 cells/well, MCF7 4,000 cells/well. The next day, compounds were diluted in low glucose DMEM containing 100 μg/mL gentamicin, at twice the final required concentration, from 10 mM stock solutions in DMSO. 100 μL/well of these dilutions were added to the 100 μL of media currently in the assay plates. Medium containing 0.6% DMSO was added to control wells. The final concentration of DMSO in all wells was 0.3%. Cells were incubated at 37° C., 5% CO2 for 72 h. Medium was removed by aspiration. Cell biomass was estimated by staining cells with 80 μL per well methylene blue (Sigma M9140, 0.5% in 50:50 ethanol:water), and incubation at room temperature for 30-60 min. Stain was removed by aspiration and the plates rinsed by immersion in water, then air-dried. To release stain from the cells, 100 μL of solubilization solution was added (1% N-lauroyl sarcosine, Sodium salt, Sigma L5125, in PBS), and plates were shaken gently for about 30 min. Optical density at 620 nm was measured on a microplate reader. Percent inhibition of cell growth was calculated relative to vehicle treated control wells. Concentration of compound that inhibits 50% of cell growth (IC50) was interpolated using nonlinear regression (Levenberg-Marquardt) and the equation, y=Vmax*(1−(x/(K+x)))+Y2, where “K” was equal to the IC50.

A further test has as its system SKOV3. The experiment in a line: Cell-Titer Glo Cell Growth Inhibition Assay, SKOV-3. The note with it: Homo sapiens, SK-OV-3, CellTiter-Glo, 72 h, read-out: CTG SKOV-3 IC50. The procedure: (§1) A549-L (human lung), BT474 (human breast), Colo 205 (human colon), H1299 (human lung), Hela (human cervix), HCT-116 (human colon), HN5 (human head and neck), HT29 (human colon), LNCap (human prostate), MCF7 (human breast), MDA-MB468 (human breast), MX-1 (human breast), RPMI 8226 (human peripheral blood), SKOV3 (human ovary) and P388 (murine leukemia) cell lines were cultured in RPMI1640 containing 10% fetal bovine serum at 37° C. in a 5% CO2 incubator. Cell lines were split into T75 flasks (Falcon #353136) two to three days prior to assay set up at density which yields approximately 70-80% confluency at time of harvest for assay. Cells were harvested using 0.25% trypsin with EDTA (Glibco/Invitrogen #25200-056), Cell counts were performed on cell suspensions using Trypan Blue exclusion staining, cells were then plated in 105 uL of culture media per well at the following densities in 96 well Costar #3916 black flat bottom plates: All human cell lines were plated at 500 cells/well. P388 were plated at 250 cells/well. All plates were placed at 5% CO2 37° C. overnight and then test compounds were added the following day. One plate of each cell type is treated with CellTiter-Glo (Promega #G7573) for a day 0 proliferation measurement and read as described below. The test compounds are prepared in clear U bottom polypropylene 96 well plates (Falcon #35-1190 with consecutive two fold dilutions. 9 uL of these dilutions was added into each well of the cell plates. The final concentration of DMSO in all wells is 0.15%. Cells were incubated at 37° C., 5% CO2 for 72 h. Following 72 h of incubation with compounds each plate was developed and read. CellTiter-Glo reagent was added to assay plates using a volume equivalent to the cell culture volume in the wells. Plates were shaken for approximately two minutes and incubated at room temperature for approximately 15 min and the chemiluminescent signal is read on the Victor V or Envison 2100 reader. […] Concentration of compound that inhibited 50% of cell growth (IC50) was analysis by 4 or 6 parameter fit of data using XLfit, value of no cell addition was subtracted from all samples for background.
For orientation: ATP-based viability assays read luminescence as a measure of living cells.

For the next test, the system named is Colo 205. The experiment in a line: Cell-Titer Glo Cell Growth Inhibition Assay, COLO205. To be noted: Homo sapiens, CellTiter-Glo, 72 h, read-out: CTG COLO205 IC50. The procedure: as §1
Another test concerns HCT-116. The experiment in a line: Cell-Titer Glo Cell Growth Inhibition Assay, HCT116. The note with it: Homo sapiens, CellTiter-Glo, 72 h, read-out: CTG HCT116 IC50. The essentials: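 Human tumour cells in RPMI1640 + 10% FBS, plated at 500 cells/well, rested overnight, then given two-fold compound dilutions (0.15% DMSO) for 72 h at 37° C, 5% CO2. CellTiter-Glo luminescence read against a day-0 plate; IC50 from 4- or 6-parameter fit after no-cell background subtraction.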

In another test the test system is MX-1. The experiment in a line: Methylene Blue Cell Growth Inhibition Assay, MX-1. The note with it: Homo sapiens, MX1, 72 h, read-out: MEB MX-1 IC50.

Structures are written as SMILES. pIC50: −log10 of the molar value.

As usually defined, the pIC50 is the IC50 on a negative log10 scale, so that one unit is a factor of ten. Take `C[C@@H](Oc1cc(-n2cnc3cc(-c4cnn(C)c4)ccc32)sc1C(N)=O)c1ccccc1Cl` [Example 9, 3-{[(1R)-1-(2-Chlorophenyl)ethyl]oxy}-5-[5-(1-methyl-1H-pyrazol-4-yl)-1H-benzimidazol-1-yl]-2-thiophenecarboxamide]: the pIC50 in the test with RKO, with SKOV3, in the test with Colo 205, in the test on HCT-116 and in the test with MX-1 was over 7.00 each time.

For `C[C@@H](Oc1cc(-n2cnc3cc(-c4ccc(N5CCNCC5)nc4)ccc32)sc1C(N)=O)c1ccccc1Cl` [Example 7, 3-{[(1R)-1-(2-Chlorophenyl)ethyl]oxy}-5-{5-[6-(1-piperazinyl)-3-pyridinyl]-1H-benzimidazol-1-yl}-2-thiophenecarboxamide], the pIC50 was over 7.00 with RKO, 6.00 to 7.00 in the test on SKOV3, over 7.00 in the test on Colo 205 and over 7.00 in the test with HCT-116.

Take `C[C@@H](Oc1cc(-n2cnc3cc(-c4ccc(N5CCNCC5)nc4)ccc32)sc1C(N)=O)c1ccccc1C(F)(F)F` [Example 1, 5-{5-[6-(1-piperazinyl)-3-pyridinyl]-1H-benzimidazol-1-yl}-3-({(1R)-1-[2-(trifluoromethyl)phenyl]ethyl}oxy)-2-thiophenecarboxamide]: the pIC50 is over 7.00 in the test on RKO; 6.00 to 7.00 in the test with SKOV3; over 7.00 in the test on Colo 205; over 7.00 in the test with HCT-116; 6.00 to 7.00 with MX-1.

The values are drawn from US20080214563A1, “Benzimidazole Thiophene Compounds As Plk Modulators” (priority 2005, published 2008).
